This note sets out measurements from PubChem BioAssay (NCI).

Some test systems named below: UACC-62 melanoma; OVCAR-8 ovarian; SR leukemia; ACHN renal; UACC-257 melanoma; OVCAR-3 ovarian; OVCAR-4 ovarian; M14 melanoma; SF-539 CNS.
What all share (assay): DTP human tumour cell line panel, 48 h

Values joined by “and” are separate entries in the source; they are usually repeats but may differ in a detail not shown here. Equal entries are not always repeated.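 1) Cells in 96-well plates. 2) Compound, 48 h, 5 concentrations. 3) Linear interpolation between surrounding doses. 4) Unreached endpoint = highest concentration. Abbreviation: GI50, concentration required for 50% inhibition of growth. Definition used: TGI = concentration required for complete inhibition of growth.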

A word on the TGI: it is the concentration at which net growth stops. A lower TGI goes with greater sensitivity of the cells. For `CSc1ccc2c(c1)N(CCCN(C)C)c1ccccc1S2`, the concentration for total growth inhibition (TGI) was 22.4 µM with UACC-62 melanoma; 36.1 µM with OVCAR-8 ovarian; 19.2 µM with SR leukemia; 24.1 µM in the assay with ACHN renal; 19.9 µM in the assay with UACC-257 melanoma; 27.2 µM in the assay on OVCAR-3 ovarian. Further, the TGI in the assay on OVCAR-4 ovarian stood at 24.5 µM; in the assay with M14 melanoma, 17.8 µM; with SF-539 CNS it was 44.9 µM.
Usually GI50 stands for the concentration that inhibits growth by half. On to `c1ccc2[nH]c(-c3cscn3)nc2c1`, for which the TGI with UACC-62 melanoma, with OVCAR-8 ovarian, with SR leukemia, with ACHN renal, in the assay with UACC-257 melanoma and with OVCAR-3 ovarian was more than 100 µM in each case. For the same molecule, the TGI with OVCAR-4 ovarian, in the assay with M14 melanoma and with SF-539 CNS was more than 100 µM throughout. Besides, in the assay with SR leukemia, the GI50 is > 100 µM and 38.7 µM.
Turning to `COc1cc(/C=C/C(=O)/C=C/c2ccc(-n3ccnc3)cc2)ccc1O`, the GI50 in the assay with UACC-62 melanoma is 5.01 µM; in the assay with OVCAR-8 ovarian it was 3.58 µM; in the assay with SR leukemia, 1.67 µM; with ACHN renal, 3.27 µM; in the assay with UACC-257 melanoma, 3.21 µM; with OVCAR-3 ovarian, 3.14 µM. The GI50 was 8.38 µM in the assay on OVCAR-4 ovarian, 2.24 µM in the assay on M14 melanoma and 2.47 µM in the assay on SF-539 CNS. Further, the TGI with UACC-62 melanoma was 30.2 µM; in the assay with OVCAR-8 ovarian it was more than 100 µM; in the assay with SR leukemia, 9.24 µM; in the assay with ACHN renal, 12.6 µM; in the assay on UACC-257 melanoma it was 11.5 µM; in the assay with OVCAR-3 ovarian it was 10 µM. In addition, the values for the TGI in the assay with OVCAR-4 ovarian, in the assay on M14 melanoma and in the assay with SF-539 CNS were 35.5 µM, 5.98 µM and 6.31 µM, respectively.
In the case of `O=[N+]([O-])/C=C/c1cn(CCCCCCCCn2cc(/C=C/[N+](=O)[O-])c3ccccc32)c2ccccc12`, the TGI in the assay with UACC-62 melanoma, in the assay with OVCAR-8 ovarian, with SR leukemia, with ACHN renal, in the assay with UACC-257 melanoma and with OVCAR-3 ovarian was more than 10 µM throughout. Moreover, the TGI in the assay on OVCAR-4 ovarian, with M14 melanoma and in the assay on SF-539 CNS was more than 10 µM each time.
With `NCC[PH+](c1ccccc1)c1ccccc1.NCC[PH+](c1ccccc1)c1ccccc1.[Cl-].[Pt+4]`, the GI50 is more than 86.5 µM with UACC-62 melanoma; more than 100 µM in the assay with OVCAR-8 ovarian; 29.7 µM in the assay with SR leukemia; more than 100 µM in the assay with ACHN renal; more than 100 µM in the assay with UACC-257 melanoma; more than 100 µM in the assay with OVCAR-3 ovarian. Further, the GI50 with OVCAR-4 ovarian, in the assay on M14 melanoma and in the assay with SF-539 CNS was more than 100 µM in each case. Further, the TGI in the assay on UACC-62 melanoma, in the assay with OVCAR-8 ovarian, in the assay with SR leukemia, with ACHN renal, with UACC-257 melanoma and in the assay on OVCAR-3 ovarian was more than 100 µM each time. The TGI in the assay on OVCAR-4 ovarian, in the assay with M14 melanoma and in the assay with SF-539 CNS was more than 100 µM in each case.
As to `CNc1ccc(CSc2ccc(C)cc2)cc1`, the GI50 was 17.3 µM with UACC-62 melanoma; 40.5 µM in the assay on OVCAR-8 ovarian; 6.15 µM with SR leukemia; 34 µM with ACHN renal; 36.1 µM in the assay on UACC-257 melanoma; 11.7 µM in the assay with OVCAR-3 ovarian. Moreover, the GI50 was 7.44 µM in the assay with OVCAR-4 ovarian, 13.6 µM with M14 melanoma and 3.69 µM in the assay with SF-539 CNS. For the same molecule, the TGI was 52.9 µM in the assay with UACC-62 melanoma; more than 100 µM with OVCAR-8 ovarian; 90.1 µM in the assay with SR leukemia; more than 100 µM in the assay with ACHN renal; more than 100 µM in the assay on UACC-257 melanoma; more than 100 µM with OVCAR-3 ovarian. The TGI with OVCAR-4 ovarian is more than 100 µM; in the assay with M14 melanoma it was 32.6 µM; in the assay with SF-539 CNS it was 24.5 µM.
Regarding `Cc1cc(=O)[nH]c2c1C(=O)c1c(C)cc(=O)n(C)c1C2=O`, the TGI is 0.0332 µM in the assay with UACC-62 melanoma; 0.207 µM with OVCAR-8 ovarian; more than 10 µM in the assay with SR leukemia; 0.223 µM in the assay on ACHN renal; 0.0307 µM in the assay with UACC-257 melanoma; 0.151 µM with OVCAR-3 ovarian. Also, the TGI came to 0.378 µM in the assay on OVCAR-4 ovarian, 0.0282 µM in the assay on M14 melanoma and 0.0369 µM in the assay on SF-539 CNS.
For the molecule `Cn1cc(C2=C(c3cccc([N+](=O)[O-])c3)C(=O)NC2=O)c2ccccc21`, the GI50 with UACC-62 melanoma is 6.58 µM; in the assay with OVCAR-8 ovarian, 6.81 µM; in the assay with SR leukemia it was 7 µM; in the assay on ACHN renal, 4.88 µM; in the assay with UACC-257 melanoma, 9.99 µM; in the assay with OVCAR-3 ovarian it was 5.33 µM. For the same molecule, the GI50 was 6.06 µM in the assay with OVCAR-4 ovarian, 12.4 µM in the assay with M14 melanoma and 6.1 µM with SF-539 CNS. For the same molecule, the total growth inhibition concentration (TGI) was 18.1 µM in the assay with UACC-62 melanoma; more than 22.4 µM in the assay on OVCAR-8 ovarian; more than 25 µM with SR leukemia; more than 25 µM in the assay with ACHN renal; more than 22.7 µM with UACC-257 melanoma; more than 22 µM in the assay on OVCAR-3 ovarian. In addition, the TGI in the assay with OVCAR-4 ovarian, in the assay on M14 melanoma and in the assay on SF-539 CNS was more than 25 µM each time.
On to `C=C1CCC2C(C)(CO)C(O)CCC2(C)C1C/C=C1\C(=O)OCC1O` (stereo unspecified), for which the TGI with UACC-62 melanoma was 57.5 µM; in the assay with OVCAR-8 ovarian, 22.6 µM; in the assay with SR leukemia, 42.5 µM; in the assay on ACHN renal it was more than 100 µM; with UACC-257 melanoma, 73.8 µM; with OVCAR-3 ovarian, 21.2 µM. In addition, the TGI with OVCAR-4 ovarian stood at 23.5 µM; in the assay with M14 melanoma, 53.7 µM; in the assay on SF-539 CNS, 44.3 µM.
Take `CC(C)(C)c1cnc(CSc2cnc(NC(=O)C3CCNCC3)s2)o1`: the GI50 in the assay on UACC-62 melanoma was 0.16 µM and 0.178 µM; in the assay on OVCAR-8 ovarian, 0.307 µM and 0.365 µM; with SR leukemia it was 0.0346 µM and 0.0265 µM; in the assay on ACHN renal it was 2.12 µM and 2.14 µM; in the assay with UACC-257 melanoma it was 0.221 µM and 0.317 µM; in the assay on OVCAR-3 ovarian, 0.223 µM and 0.181 µM. Also, the concentration for 50% growth inhibition (GI50) with OVCAR-4 ovarian is 0.273 µM and 0.281 µM; with M14 melanoma, 0.441 µM and 0.564 µM; in the assay on SF-539 CNS it was 0.243 µM and 0.179 µM. For the same molecule, the concentration for total growth inhibition (TGI) in the assay with UACC-62 melanoma was 0.403 µM and 0.702 µM; in the assay on OVCAR-8 ovarian it was 19.7 µM and > 10 µM; with SR leukemia it was 1.6 µM; with ACHN renal, more than 52.1 µM; in the assay on UACC-257 melanoma it was 0.634 µM and 1.74 µM; in the assay with OVCAR-3 ovarian, 3.61 µM and > 2.95 µM. The TGI with OVCAR-4 ovarian is 2.67 µM and > 8.21 µM; in the assay on M14 melanoma, 2.87 µM and 2.61 µM; with SF-539 CNS, 0.67 µM and 0.513 µM.
